Measured values from US7588783B2, “Flavonoid derivative” (Merck Patent GmbH, priority 2003, dated 2009).
Values after ≈ are worked out from the molar mass of the structure shown.

How the values were obtained:
[1] = system: epican gene (hyaluronic acid receptor); assay: cDNA array gene expression: epican gene; format: cell-based, human; settings: detectable by cDNA array
Experimental: (§1) The influence on the expression of the said genes can be detected by means of a cDNA array.
(§2) The culture medium in cell cultures (human keratinocytes) is replaced by culture medium with (test) or without test substance (control). The cells are cultivated further for a defined time, harvested and frozen at −80°.
(§3) The RNA is extracted, where each culture comprises about 200 μg of RNA. The solution is adjusted to 1 μg/μl of RNA and treated with DNAse I in order to remove all DNA residues. The amount of RNA is adjusted to 2 μg/ml.
(§4) The mRNA is transcribed to cDNA ^32P-labelled samples and purified by chromatography.
(§5) The DNA sequences are immobilised on cDNA chip membranes and hybridised (overnight at 68° C). The membranes are washed intensively, and the radioactivity of each measurement point is measured. An increase in the radioactivity means upregulation of the corresponding RNA compared with the control.

[2] = system: arachidonic acid cascade; assay: antiinflammatory activity, keratinocyte monolayer PGE2 model; format: cell-based
Experimental: In order to induce inflammation, keratinocytes are incubated with the pro-inflammatory substance phorbol myristate acetate (PMA) for 24 hours in 96-well plates (15,000 cells/well). The preincubated cells (final concentration of PMA 0.1 μg/ml) are incubated with 10^−6 M indometacin (positive control) or 0.2 mM [5-hydroxy-7-methoxy-2-(4′-methoxyphenyl)-4-oxo-4H-chromen-8-yl]sulfonic acid monoester for 24 hours. The negative control used is a control culture comprising no PMA. After incubation, the content of prostaglandin E2 (PGE2) in all three samples is determined by ELISA kits.

[3] = system: transglutaminase; assay: cDNA array gene expression in human keratinocytes: transglutaminase gene; format: cell-based; settings: detectable by cDNA array
Experimental: The influence on the expression of the said genes can be detected by means of a cDNA array. Expression of the Transqlutaminase Gene The culture medium in cell cultures (human keratinocytes) is replaced by culture medium with (test) or without test substance (control). The cells are cultivated further for a defined time, harvested and frozen at −80°. The RNA is extracted, where each culture comprises about 200 μg of RNA. The solution is adjusted to 1 μg/μl of RNA and treated with DNAse I in order to remove all DNA residues. The amount of RNA is adjusted to 2 μg/ml. The mRNA is transcribed to cDNA ^32P-labelled samples and purified by chromatography. The DNA sequences are immobilised on cDNA chip membranes and hybridised (overnight at 68° C). The membranes are washed intensively, and the radioactivity of each measurement point is measured. An increase in the radioactivity means upregulation of the corresponding RNA compared with the control.

[4] = system: tissue inhibitor of metalloproteinase 1 precursor (TIMP1); assay: cDNA array gene expression: TIMP1; format: cell-based, human; settings: detectable by cDNA array
Experimental: as §1, §2, §3, §4, §5

[5] = water solubility; format: physicochemical; settings: at 25° C.

expression of the epican gene (hyaluronic acid receptor) [1]: induces the expression
gene expression of transglutaminase [3]: induction of gene expression
synthesis of tissue inhibitor of metalloproteinase 1 precursor (TIMP1) [4]: induces the synthesis
solubility [5]: 21 mg/mL (≈ 53.3 mM)
SMILES: COc1ccc(-c2cc(=O)c3c(O)cc(OC)c(OS(=O)(=O)O)c3o2)cc1 [[5-hydroxy-7-methoxy-2-(4′-methoxyphenyl)-4-oxo-4H-chromen-8-yl]sulfonic acid monoester]
effect on the arachidonic acid cascade (antiinflammatory action) [2]: inhibits the arachidonic acid cascade
